We go through 34 compounds from patent US20030212061A1, “Aza-thioxanthenones with antitumor activity” (priority 2002, published 2003).

Test [1] deals with HeLa S-3 cells. Briefly: Inhibition of cell growth (GI50), sulforhodamine B staining. The test is classed as cell-based. The settings on record: for Folds Improvements: GI50 of carbocyclic congener versus GI50 of aza-analog. As for the experimental part:
Growth inhibition (GI50) values were measured with HeLa S-3 cells selected for growth on plastic. The procedure was based on the protocol of Skehan et al. (Skehan, P., et al., J. Natl. Cancer Inst., 82:1107-1112 (1990), which is hereby incorporated by reference) HeLa cells were plated at 2×10^4 cells/well in 96 well plates. One day later, a control plate was fixed by addition of TCA to 5%. After five rinses with tap water, the plate was air dried and stored at 4° C. Test compounds were added to the remaining plates at 10-fold dilutions between 0.01 and 100 μM. Two days later, all plates were fixed as described above. Cells were then stained by the addition of 100 μl per well of 0.4% sulforhodamine B (SRB) in 1% acetic acid for 30 min at 4° C. Wells were then quickly rinsed 5×with acetic acid (1%) and allowed to air dry. The SRB was then solubilized by the addition of 100 μl per well of unbuffered 10 mM Tris base. Dye was quantified by measuring absorbance at 490 nm on a Molecular Devices kinetic microplate reader. Growth at each inhibitor concentration relative to the untreated control was calculated according to the following equation: percent growth=100×(T−To)/(C−To), where T was the average optical density (OD) of the test wells after 2 days of treatment, To was the average OD of the wells in the control plate on day 0 and C was the average OD of untreated wells. Plots of percent growth versus inhibitor concentration were used to determine the GI50.
The data below shown in Table 4 summarizes the in vitro growth inhibition constants (GI50) of HeLa Cells for the compounds of the current invention.
GI50 is the concentration of the compound that causes a 50 percent inhibition of tumor cell growth

The test system of test [2] is murine leukemia (L1210) and P388 leukemia cells. The settings on record: in vitro L1210 and in vivo P388; cited from earlier work.
Where [3] appears, read: Homo sapiens, HeLa S3, 48 h, HeLa cells, 2 days of treatment, Table 4, read-out: GI50 Activity.
The mark [4] stands for this setting: Homo sapiens, HeLa S3, HeLa cells, Table 5, carbocyclic congener, read-out: GI50 (Carbocic Congener).
Setting [5] is: Homo sapiens, HeLa S3, HeLa cells, Table 5, aza-analog, read-out: GI50 (Aza-Analog).

Where two headings read alike, the source gives them in different places.

In the case of `CCN(CC)CCNc1ccc(C=O)c2sc3ccccc3c(=O)c12`, the GI50 in test [1] (setting [3]) came out at 2000 nM.

On to `CCN(CC)CCN(C)c1ccc2c(=O)c3cnccc3sc2c1`, for which the GI50 in test [1] (setting [3]) was over 10000 nM.

As for `CCN(CC)CCNc1ccc(CNC(=O)OC)c2sc3ccncc3c(=O)c12`, in test [1] (setting [3]), the GI50 is 300 nM.

Regarding `CCN(CC)CCn1nc2c3c(cccc31)Sc1ccncc1-2`, the GI50 in test [1] (setting [3]) was determined as 1000 nM.

Take `CCN(CC)CCn1nc2c3c(c(CNC(=O)OC)ccc31)Sc1ccncc1-2`: the concentration for 50% growth inhibition (GI50) in test [1] (setting [3]) was 100 nM.

In the case of `CCN(CC)CCN(N)c1ccc2c(=O)c3cnccc3sc2c1`, in test [1] (setting [3]), the GI50 is over 10000 nM.

Take `CCN(CC)CCn1nc2c3c(c(CNC=O)ccc31)Sc1ccncc1-2`: in test [1] (setting [3]), the 50% growth inhibitory concentration (GI50) amounted to 200 nM.

In the case of `CCN(CC)CCn1nc2c3c(c(CN)ccc31)Sc1ccncc1-2`, the GI50 in test [1] (setting [3]) was found to be 200 nM.

With `CCN(CC)CCn1nc2c3c(cccc31)Sc1ccccc1-2`, in test [1] (setting [3]), the GI50 is 9000 nM.

`CCN(CC)CCn1nc2c3c(c(C=O)ccc31)Sc1ccccc1-2`: the GI50 in test [1] (setting [3]) was 2000 nM.

`CCN(CC)CCn1nc2c3c(c(CNC=O)ccc31)Sc1ccccc1-2`: the GI50 in test [1] (setting [3]) came out at 1000 nM.

In the case of `CCN(CC)CCn1nc2c3c(c(CN)ccc31)Sc1ccccc1-2`, in test [1] (setting [3]), the GI50 came out at 1000 nM.

For the compound `CCN(CC)CCn1nc2c3c(c(CNS(C)(=O)=O)ccc31)Sc1ccccc1-2`, the GI50 in test [1] (setting [3]) stood at 900 nM.

`CCN(CC)CCn1nc2c3c(c(CNC(=O)OC)ccc31)Sc1ccccc1-2`: the GI50 in test [1] (setting [3]) is 3000 nM.

As for `CN(C)CCNC(=O)c1cccc2c(=O)c3ccccc3sc12.Cl` [N-[2-(dimethylamino)ethyl-]-9-oxo-9H-thioxanthene-4-carboxamide monohydrochloride], the “assessment as a potential antitumor agent” value in test [2] is recorded as “unlikely to worth pursuing”.

As to `CCN(CC)CCNc1cccc2sc3ccccc3c(=O)c12` [drawing 74], the GI50 in test [1] (setting [3]) was over 10000 nM.

Take `CCN(CC)CCNc1ccc(CNC=O)c2sc3ccccc3c(=O)c12` [drawing 76]: in test [1] (setting [3]), the GI50 amounted to 3000 nM.

For the compound `CCN(CC)CCNc1ccc(CN)c2sc3ccccc3c(=O)c12` [drawing 77], the GI50 in test [1] (setting [3]) was found to be 600 nM.

As to `CCN(CC)CCNc1ccc(CNS(C)(=O)=O)c2sc3ccccc3c(=O)c12` [drawing 78], the concentration for 50% growth inhibition (GI50) in test [1] (setting [3]) is 3000 nM.

With `CCN(CC)CCNc1ccc(CNC(=O)OC)c2sc3ccccc3c(=O)c12` [drawing 79], the GI50 in test [1] (setting [3]) was found to be 3000 nM.

Turning to `CCN(CC)CCNc1cccc2sc3ccncc3c(=O)c12` [drawing 81], in test [1] (setting [3]), the GI50 was determined as 3000 nM.

`CCN(CC)CCNc1ccc(CNC=O)c2sc3ccncc3c(=O)c12` [drawing 82]: the GI50 in test [1] (setting [3]) was 1000 nM.

In the case of `CCN(CC)CCNc1ccc(CN)c2sc3ccncc3c(=O)c12` [drawing 83], the GI50 in test [1] (setting [3]) came to 700 nM.

As for `CCN(CC)CCNc1ccc(CNS(C)(=O)=O)c2sc3ccncc3c(=O)c12` [drawing 84], in test [1] (setting [3]), the GI50 was 400 nM.

With `CCN(CC)CCNc1cccc2sc3ccccc3c(=O)c12` [drawing 97, reference compound], in test [1] (setting [4]), the GI50 was over 10000 nM.

Take `CCN(CC)CCNc1cccc2sc3ccncc3c(=O)c12` [drawing 98]: the “Folds Improvements” value in test [1] (HeLa cells) is listed as 3.5. Moreover, in test [1] (setting [5]), the GI50 amounted to 3000 nM.

As for `CCN(CC)CCNc1ccc(CNC=O)c2sc3ccccc3c(=O)c12` [drawing 99, reference compound], the GI50 in test [1] (setting [4]) was found to be 3000 nM.

Turning to `CCN(CC)CCNc1ccc(CNC=O)c2sc3ccncc3c(=O)c12` [drawing 100], the “Folds Improvements” value in test [1] (HeLa cells) is recorded as 3. For the same compound, in test [1] (setting [5]), the GI50 was 1000 nM.

Regarding `CCN(CC)CCNc1ccc(CN)c2sc3ccccc3c(=O)c12` [drawing 101, reference compound], in test [1] (setting [4]), the GI50 turned out to be 600 nM.

In the case of `CCN(CC)CCNc1ccc(CN)c2sc3ccncc3c(=O)c12` [drawing 102], the “Folds Improvements” value in test [1] (HeLa cells) is 1. Besides, the GI50 in test [1] (setting [5]) amounted to 700 nM.

`CCN(CC)CCNc1ccc(CNS(C)(=O)=O)c2sc3ccccc3c(=O)c12` [drawing 103, reference compound]: the GI50 in test [1] (setting [4]) stood at 3000 nM.

As for `CCN(CC)CCNc1ccc(CNS(C)(=O)=O)c2sc3ccncc3c(=O)c12` [drawing 104], the “Folds Improvements” value in test [1] (HeLa cells) turned out to be 7.5. For the same compound, the GI50 in test [1] (setting [5]) worked out at 400 nM.

As for `CCN(CC)CCNc1ccc(CNC(=O)OC)c2sc3ccccc3c(=O)c12` [drawing 105, reference compound], the GI50 in test [1] (setting [4]) was found to be 3000 nM.

For `CCN(CC)CCNc1ccc(CNS(C)(=O)=O)c2sc3ccncc3c(=O)c12` [drawing 106], the “Folds Improvements” value in test [1] (HeLa cells) is given as 10. The GI50 in test [1] (HeLa cells, Table 5, aza-analog, read-out: GI50 (Aza-Analog)) came out at 300 nM.
